The values that follow come from patent US20260042771A1, “HETEROCYCLIC COMPOUND FOR INDUCING DEGRADATION OF G12V MUTANT KRAS PROTEIN” (Astellas Pharma Inc., priority 2022, published 2026).

Broadly, the IC50 is the concentration that inhibits the measured activity by half. Low readings indicate greater potency in that assay, high ones weaker potency in that assay. One may read the DC50 as the concentration at which degradation of the target reaches its halfway point. The low end stands for a more potent degrader, the high end for a less potent degrader. A word on the Dmax: it is the largest share of the target that was removed. For orientation: inhibition means the relative decrease from the control value, in per cent.

Assay [1] relates to human KRAS G12V mutant-positive pancreatic cancer line PA-TU-8902. As to the kind of experiment: Test Example 3: non-anchorage-dependent cell growth inhibition, spheroid 3D culture. The format is cell-based. The settings on record: PaTu 8902, 144 h, PA-TU-8902 spheroid 3D culture, 6 days; for IC50: CellTiter Glo 2.0. As for the experimental part: Test Example 3: Evaluation of Non-Anchorage-Dependent Cell Growth Inhibitory Effect on Human KRAS G12V Mutant-Positive Pancreatic Cancer Line PA-TU-8902
The non-anchorage-dependent cell growth inhibitory effect of test compounds was evaluated by spheroid 3D cell culture.
PA-TU-8902 cells were seeded on low-cell-adhesive round bottom 384-well plates (PrimeSurface: from Sumitomo Bakelite) at 36 µL/well to give 5×10^2 cells per well. The cell culture was performed under the same conditions as in Test Example 1.
The next day, the test compounds (8 to 10 points having final concentrations in the range of 3 μM to 0.1 nM) and DMSO, which was the solvent for the test compounds, as a negative control were diluted 100-fold with a fresh medium and were added at 4 μL per well. After culturing in the presence of 5% CO2 at 37° C. for 6 days, CellTiter Glo 2.0 (from Promega) was added at 20 μL per well. After stirring with a plate mixer (from FINEPCR) at normal temperature for 1 hour, the luminescent signals were measured with ARVO X3 (from PerkinElmer).
With the signaling value in treatment with DMSO taken as 0% inhibition and with the signaling value in the medium alone without cells taken as 100% inhibition, the 50% inhibitory concentration values (IC50) were calculated by Sigmoid-Emax nonlinear regression analysis. The inhibition rate at 30 nM was calculated for Example No. 17.
Background: Cellular ATP, detected with luciferase, serves as a proxy for viable cell number.

The target in assay [2] is T1, RAS G12V (Homo sapiens, UniProt P01116, G12V).
T1 construct: host or cells: PA-TU-8902 human pancreatic cancer cells
Description: Test Example 1: RAS G12V degradation activity by Cell ELISA in PA-TU-8902. Format: cell-based. The settings on record: for DC50: 50% degradation concentration of RAS G12V, PA-TU-8902 cells, 24 hours, Cell ELISA, corrected with β-actin; for Dmax: PaTu 8902, degradation rate at the most active concentration, DMSO = 0%, Example No. 7 at 3 μM = 100%, PA-TU-8902, 24 hours. As for the experimental part:
Test Example 1: Evaluation of RAS G12V Degradation Activity on Human KRAS G12V Mutant-Positive Pancreatic Cancer Line PA-TU-8902
The RAS G12V degradation activity of test compounds was evaluated by measuring the expression levels of RAS G12V by Cell ELISA.
PA-TU-8902 cells (DSMZ, ACC 179) were seeded at 36 μL per well on 384-well plates (from Greiner bio-one) to give 1.5×10^4 cells per well. As for the cell culture conditions, DMEM medium (from Sigma-Aldrich) containing 10% fetal bovine serum (from Cytiva) was used in the presence of 5% CO2 at 37° C.
The next day, the test compounds (10 points having final concentrations in the range of 3 μM to 0.1 nM), the compound of Example No. 7 having a final concentration of 3 μM as a positive control and dimethyl sulfoxide (DMSO), which was the solvent for the test compounds, as a negative control were diluted 100-fold with a fresh medium and were added at 4 μL per well. The cells were cultured for 24 hours.
The next day, the culture supernatant was removed, and 4% paraformaldehyde phosphate buffer (from FUJIFILM Wako Pure Chemical Corporation) was added at 20 μL per well. The plates were allowed to stand for 30 minutes at room temperature to thus immobilize the cells. Then, the supernatant was removed, and 0.1% Triton X-100 (from Amersham Biosciences)-containing Phosphate buffered saline (PBS) was added at 20 μL per well. After allowing to stand at room temperature for 10 minutes, the supernatant was removed. PBS was added at 25 μL per well, and the supernatant was removed to thus wash each well. The washing was performed twice in total. Subsequent washing operations were performed in the same manner. Next, the supernatant was removed, and 0.5% sodium dodecyl sulfate (SDS; from ThermoFisher Scientific)-containing PBS was added at 20 μL per well. After allowing to stand at room temperature for 10 minutes, the supernatant was removed by centrifugation of the plates. After washing with PBS, the supernatant was removed by centrifugation, and blocking solution (PVDF Blocking Reagent for Can Get Signal [from TOYOBO Co., Ltd.]) was added at 20 μL per well. After allowing to stand for 30 minutes at room temperature, the supernatant was removed by centrifugation and a solution obtained by diluting, as primary antibodies, anti-Ras (G12V Mutant Specific) antibody (Ras (G12V Mutant Specific) (D2H12) Rabbit mAb; from Cell Signaling Technology; 500-fold diluted) and […] (Anti-beta Actin antibody; from Abcam; 5,000-fold diluted) with Can Get Signal Solution 2 (from TOYOBO Co., Ltd.) was added at 15 μL per well. The plates were allowed to stand overnight at 4° C.
The next day, the supernatant was removed by centrifugation and washed with PBS. The supernatant was removed by centrifugation, a solution obtained by diluting, as secondary antibodies, anti-rabbit IgG antibody (IRDye 800CW Goat anti-Rabbit IgG; from LI-COR Biosciences) and anti-mouse IgG antibody (IRDye 680RD Donkey anti-Mouse IgG; from LI-COR Biosciences) 1,000-fold with Can Get Signal Solution 2 was added at 15 μL per well. After allowing to stand at room temperature for 1 hour, the supernatant was removed by centrifugation and washed with PBS. After removing the supernatant, the plates were dried with air at room temperature for 2 hours or more, and the 700 nm and 800 nm fluorescent signals were measured with Aerius (from LI-COR Biosciences).
The degradation rate of RAS G12V was calculated with the RAS G12V signaling value at the time of addition of DMSO taken as 0%, which was corrected with the signaling value of β-actin, and with the RAS G12V signaling value at the time of addition of the compound of Example No. 7 at a final concentration of 3 μM taken as 100%. […]
Background: ELISA stands for enzyme-linked immunosorbent assay.

T1 sequence (P01116 1-188 isoform P01116-2 G12V): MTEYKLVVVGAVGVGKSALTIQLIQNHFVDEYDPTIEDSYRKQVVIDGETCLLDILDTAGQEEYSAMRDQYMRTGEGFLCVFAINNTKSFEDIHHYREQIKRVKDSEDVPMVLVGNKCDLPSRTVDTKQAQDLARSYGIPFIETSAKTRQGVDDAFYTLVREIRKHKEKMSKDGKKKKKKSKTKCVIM

With `CO[C@@H](C)COc1nc(OC2CN(C(=O)NCCN(C)C)C2)c2cc(C3CC3)c(-c3c(C)c(F)cc4[nH]ncc34)c(OCc3ccc(C(=O)N4CCN(Cc5ccc6c(c5)n(C)c(=O)n6C5CCC(=O)NC5=O)C[C@@H]4C)cc3)c2n1` (stereo partly drawn) [Example 1], in assay [1], half-maximal inhibition (IC50) was put at 42 nM. In assay [2], this compound displayed a DC50 of 6 nM and a Dmax of 77%.

In assay [1], `CO[C@@H](C)COc1nc(N2CC(C#N)C2)c2cc(C3CC3)c(-c3c(C)c(F)cc4[nH]ncc34)c(OCc3ccc(C(=O)N4CCN(Cc5ccc6c(c5)n(C)c(=O)n6C5CCC(=O)NC5=O)C[C@@H]4C)cc3)c2n1` (stereo partly drawn) [Example 2, 1-{(7 M)-6-cyclopropyl-8-({4-[(2S)-4-([1-(2,6-dioxopiperidin-3-yl)-3-methyl-2-oxo-2,3-dihydro-1H-benzimidazol-5-yl]methyl)-2-methylpiperazine-1-carbonyl]phenyl)methoxy)-7-(6-fluoro-5-methyl-1H-indazol-4-yl)-2-[(2S)-2-methoxypropoxy]quinazolin-4-yl)azetidine-3-carbonitrile] gave a half-inhibitory concentration (IC50) of 21 nM. Moreover, in assay [2], half-maximal degradation (DC50) was put at 4 nM and the Dmax was 89%.

In the case of `CO[C@@H](C)COc1nc(N2CC[C@@H](N)[C@@H](F)C2)c2cc(C3CC3)c(-c3c(C)c(F)cc4[nH]ncc34)c(OCc3ccc(C(=O)N4CCN(Cc5ccc6c(c5)n(C)c(=O)n6C5CCC(=O)NC5=O)C[C@@H]4C)cc3)c2n1` (stereo partly drawn) [Example 3, 3-(5-{[(3S)-4-{4-[({4-[(3S,4R)-4-amino-3-fluoropiperidin-1-yl]-6-cyclopropyl-7-(6-fluoro-5-methyl-1H-indazol-4-yl)-2-[(2S)-2-methoxypropoxy]quinazolin-8-yl)oxy)methyl]benzoyl}-3-methylpiperazin-1-yl]methyl}-3-methyl-2-oxo-2,3-dihydro-1H-benzimidazol-1-yl)piperidine-2,6-dione], the IC50 in assay [1] came to 67 nM. In assay [2], this compound registered a DC50 of 29 nM and a maximal degradation (Dmax) of 74%.

Compound `CO[C@@H](C)COc1nc(NCc2cccnc2)c2cc(C3CC3)c(-c3c(C)c(F)cc4[nH]ncc34)c(OCc3ccc(C(=O)N4CCN(Cc5ccc6c(c5)n(C)c(=O)n6C5CCC(=O)NC5=O)C[C@@H]4C)cc3)c2n1` (stereo partly drawn) [Example 4] came in with an IC50 in assay [1] of 74 nM. Further, in assay [2], half-maximal degradation (DC50) was put at 7 nM and the Dmax came to 83%.

Take `Cc1c(F)cc2[nH]ncc2c1-c1c(C2CC2)cc2c(NC3CN(c4ncccn4)C3)nc(OCC(C)(C)CN(C)C)nc2c1OCc1ccc(C(=O)N2CCN(Cc3ccc4c(c3)n(C)c(=O)n4C3CCC(=O)NC3=O)C[C@@H]2C)cc1` (stereo partly drawn) [Example 8]: half-maximal inhibition in assay [1] (IC50) required 48 nM. In assay [2], the half-maximal degradation concentration (DC50) was 5 nM and the Dmax worked out at 81%.

Regarding `CO[C@@H](C)COc1cc(OC2CN(C(=O)NCCN(C)C)C2)c2cc(C3CC3)c(-c3c(C)c(F)cc4[nH]ncc34)c(OCc3ccc(C(=O)N4CCN(Cc5ccc6c(c5)n(C)c(=O)n6C5CCC(=O)NC5=O)C[C@@H]4C)cc3)c2n1` (stereo partly drawn) [Example 17], the inhibition at 0.03 µM in assay [1] (30 nM, CellTiter Glo 2.0, read-out: inhibition rate at 30 nM) amounted to 50%. Besides, in assay [2], half-maximal degradation (DC50) was put at 9 nM and the Dmax was 70%.
